Data taken from PubChem BioAssay (NCI).
Several values for one entry are separate records, joined by “and”; a condition that tells them apart may be missing. Equal entries are not always repeated.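 Cultured in 96-well plates, cells were exposed to test compound for 48 hours across five concentrations. Abbreviation: GI50, concentration required for 50% inhibition of growth. TGI denotes the concentration required for complete inhibition of growth.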

Key:
Test in all cases: NCI-60 cell line screen, 48 h
[1] = tested on: SF-268 CNS
[2] = tested on: UACC-62 melanoma
[3] = tested on: SNB-75 CNS
[4] = tested on: A498 renal
[5] = tested on: HCT-116 colon
[6] = tested on: DU-145 prostate
[7] = tested on: A549 NSCLC
[8] = tested on: HOP-92 NSCLC
[9] = tested on: SK-OV-3 ovarian
[10] = tested on: SNB-19 CNS

Row | Structure (SMILES) | TGI [1] [µM] | TGI [2] [µM] | TGI [3] | TGI [4] [µM] | TGI [5] [µM] | TGI [6] [µM] | TGI [7] [µM] | TGI [8] [µM] | TGI [9] [µM] | TGI [10] [µM] | GI50 [1] [µM] | GI50 [3] [µM] | GI50 [5] [µM] | GI50 [6] [µM] | GI50 [7] [µM] | GI50 [2] [µM] | GI50 [4] [µM] | GI50 [8] [µM] | GI50 [9] [µM] | GI50 [10] [µM]
1 | COc1ccc2c(c1)[nH]c1c(/C=C/c3ccccc3)nccc12 | 36.7 | 28.9 | 32.3 µM | 26.6 | 30.4 | 51.8 | 37.2 | 44.4 | 34.9 | 38.5 | – | – | – | – | – | – | – | – | – | –
2 | CCCCCCCCC/C=C/C=C/C(=O)NCC(=O)NC1C(O)C(O)C(Nc2ncnc3nc[nH]c23)OC1C(O)CO (centres undefined) | 0.671 | 0.0171 | 0.018 µM and 0.0703 µM | – | > 100 | – | – | – | 0.00892 | – | 0.00558 | 0.00184 | 0.00251 | 0.00477 | 0.00608 | – | – | – | – | –
3 | O=C(c1cccs1)N(C(=S)OC12CC3CC(CC(C3)C1)C2)c1ccccc1 | > 100 | 84.8 | > 100 µM | > 100 | 59.3 | > 100 | > 100 | > 100 | > 100 | > 100 | – | – | – | – | – | – | – | – | – | –
4 | COc1cccc2c1Cc1cc(-c3ccccc3)[n+](C)n1-2 | > 100 | 30.3 | 58.6 µM | > 100 | 15.8 | > 100 | > 100 | 66.4 | > 100 | > 100 | – | – | – | – | – | – | – | – | – | –
5 | NCCSC(c1ccccc1)c1ccccc1 | > 100 | 31.3 | 79.9 µM | 62.5 | 30.9 | 93.5 | > 100 | 37.2 | 70.8 | > 100 | – | – | – | – | – | – | – | – | – | –
6 | Nc1nc(SCCc2ccccc2)nc2nc3c(c(-c4ccccc4)c12)CCCC3 | > 100 | > 100 | 83.7 µM | – | – | > 100 | > 100 | – | > 100 | > 100 | – | – | – | – | – | – | – | – | – | –
7 | Clc1cc2c(cc1Cl)CC(NCCN1CCCC1)CC2 (centres undefined) | 29.7 | 8.15 | – | 27.4 | 26.3 | 27.8 | 29.4 | – | 34.9 | 46.3 | – | – | – | – | – | – | – | – | – | –
8 | NC(=O)c1c(NC(=O)c2ccccn2)sc2c1CCC(=O)C2 | > 100 | 67.1 | – | > 100 | > 100 | > 100 | > 100 | > 100 | > 100 | > 100 | 3.49 | – | 3.5 | > 100 | > 100 | 2.52 | > 100 | 2.75 | > 100 | 3.45
9 | CCOC(=O)C(NC(=O)c1ccco1)(Nc1nc2ccc(OCC)cc2s1)C(F)(F)F (centres undefined) | > 100 | > 100 | 70.7 µM | – | 91.2 | > 100 | > 100 | 47.5 | > 100 | > 100 | – | – | – | – | – | – | – | – | – | –
10 | COc1ccc(C(=O)/C=C/c2cccc([N+](=O)[O-])c2)c(OC)c1 | > 50 | 2.79 | > 50 µM | > 50 | 1.68 | > 50 | > 50 | > 50 | > 50 | 4.37 | 1.62 | 1.61 | 0.767 | 1.75 | 2.56 | 1.14 | 11.1 | 3.92 | 18.9 | 1.46
11 | O=C(O)C1C2CCC(O2)C1C(=O)Nc1cccc2cccnc12 (centres undefined) | – | > 100 | > 100 µM | > 100 | > 100 | > 100 | > 100 | – | > 100 | > 100 | – | – | – | – | – | – | – | – | – | –
12 | CC(=O)C1=C(C)N(c2ccc(C)cc2)C2(O)C=CC(=O)C3C(=O)N(c4ccccc4)C(=O)C132 (centres undefined) | > 100 | 35.6 | 50.5 µM | 39.6 | > 100 | 74.3 | > 100 | 43.1 | – | 65.6 | – | – | – | – | – | – | – | – | – | –
13 | CCC1CN(C(=O)c2ccccc2)C(Cc2c[nH]c3ccccc23)C(=O)C1CC(=O)OC (centres undefined) | > 100 | > 100 | > 100 µM | 64.3 | – | > 100 | – | > 100 | > 100 | – | – | – | – | – | – | – | – | – | – | –
14 | COc1nc(C#CC2(O)CCCCC2)nc(OC)n1 | 40.7 | 20.2 | 40.3 µM | 31.2 | > 100 | 19.6 | 28.1 | – | > 100 | > 100 | – | – | – | – | – | – | – | – | – | –
15 | CCn1c(-c2ccc(N=NNc3ccc(-c4n[nH]c(=S)n4CC)cc3)cc2)n[nH]c1=S | 17.2 | – | 6.92 µM | > 100 | > 100 | 8.17 | > 100 | 7.71 | 19.5 | 9.53 | – | – | – | – | – | – | – | – | – | –
16 | O=c1[nH]nc(NNc2ccccc2)c2nnn(C3CCCCC3)c12 | – | – | – | – | > 100 | > 100 | > 100 | > 100 | – | > 100 | – | – | – | – | – | – | – | – | – | –
